Data as given in patent publication US7741355B2, “Small-molecule modulators of TRP-p8 activity” (Dendreon Corporation, priority 2006, dated 2010).
Where two headings read alike, the source gives them in different places.

Assays:
[1] = molecular target: T1, Trp-p8 (Homo sapiens, UniProt Q7Z2W7, T58I); assay: ATP viability assay with CHO/Trp-p8 cells at 37° C.; type: cell-based
T1 construct: expressed in transfected cells; host or cells: CHO (Chinese Hamster Ovary) cells
Excerpt: (§1) Human Trp-p8 transfected CHO cells (referred to herein as CHO/Trp-p8) were generated for use in experiments of the present invention. Expression of Trp-p8 polypeptide in this transfectant and the absence of any endogenous expression in the non-transfected CHO was confirmed by western blot and immunofluorescence using a Trp-p8 specific antibody (GS2.20) as well as the calcium flux assay with Icilin (1-[2-hydroxyphenyl]-4-[3-nitrophenyl]-1,2,3,6-tetrahydropyrimidine-2-one) and menthol (2-isopropyl-5-methyl-cyclohexanol). Non-transfected CHO cells were used to establish the specificity of the effects of the compounds observed with CHO/Trp-p8.
This Example discloses an ATP viability assay suitable for screening for effective Trp-p8 agonists. The ATP viability assay described herein employs CHO cells expressing an exogenous Trp-p8 cDNA. This example further establishes that Trp-p8 agonists of the present invention are effective in decreasing the viability of Trp-p8 expressing cells.
The concentration of intracellular ATP declines very rapidly when metabolically active cells undergo necrosis and/or apoptosis. The ATP concentration and consequently the relative cell viability can be measured by established methods using commercially available reagents. In the agonist screening methodology disclosed herein, a compound that specifically decreases the viability of CHO/Trp-p8 cells is referred to as an agonist.
(§2) As a primary screen for efficacy and specificity for agonists, both the non-transfected CHO and CHO/Trp-p8 cells were exposed to 1 or 10 μM of test compounds in 1% dimethylsulfoxide (DMSO) or 1% DMSO (control) in a 96-well black walled, black-bottomed, cell-culture treated plate. DMSO was the solvent for all of the compounds tested. After 24-26 hours at 37° C., the cells were lysed and ATP concentration determined via a chemiluminescence assay using a commercially available reagent kit—Cell Titer-Glo (Promega; Madison, Wis.). […] (EC50 is defined herein as the agonist concentration at which there is a 50% reduction in relative cell viability).

[2] = system: Parent CHO; assay: ATP viability assay with non-transfected (parent) CHO cells; type: cell-based, Chinese Hamster; settings: Cricetulus griseus
Excerpt: as §1, §2

[3] = Plasma concentrations in rats after a single oral dose; type: in vivo; settings: rodents (FIG. 9A: rats), aqueous formulation, oral gavage
Excerpt: (§3) FIGS. 9A and 9B are graphs depicting the plasma concentrations of several compounds, as a function of time and dose, in rats (FIG. 9A), and dogs (FIG. 9B) after a single oral dose. […] Blood was collected at the indicated time points, and analyzed for drug levels.

[4] = Plasma concentrations in dogs after a single oral dose; type: in vivo; settings: Beagle dogs (FIG. 9B), aqueous formulation, oral gavage
Excerpt: as §3

[5] = Sustained plasma levels after oral dosing (half-life, species not stated); type: in vivo; settings: oral administration, read-out: t½ (sustained plasma levels) (converted)
Excerpt: as §3

[6] = Table 5, Formula I-E, CHO/Trp-p8 cells, 24-26 hours at 37° C., 50% reduction in relative cell viability, read-out: EC50
[7] = ATP viability assay, read-out: CHO/Trp-p8 EC50

T1 sequence (Q7Z2W7 whole entry T58I): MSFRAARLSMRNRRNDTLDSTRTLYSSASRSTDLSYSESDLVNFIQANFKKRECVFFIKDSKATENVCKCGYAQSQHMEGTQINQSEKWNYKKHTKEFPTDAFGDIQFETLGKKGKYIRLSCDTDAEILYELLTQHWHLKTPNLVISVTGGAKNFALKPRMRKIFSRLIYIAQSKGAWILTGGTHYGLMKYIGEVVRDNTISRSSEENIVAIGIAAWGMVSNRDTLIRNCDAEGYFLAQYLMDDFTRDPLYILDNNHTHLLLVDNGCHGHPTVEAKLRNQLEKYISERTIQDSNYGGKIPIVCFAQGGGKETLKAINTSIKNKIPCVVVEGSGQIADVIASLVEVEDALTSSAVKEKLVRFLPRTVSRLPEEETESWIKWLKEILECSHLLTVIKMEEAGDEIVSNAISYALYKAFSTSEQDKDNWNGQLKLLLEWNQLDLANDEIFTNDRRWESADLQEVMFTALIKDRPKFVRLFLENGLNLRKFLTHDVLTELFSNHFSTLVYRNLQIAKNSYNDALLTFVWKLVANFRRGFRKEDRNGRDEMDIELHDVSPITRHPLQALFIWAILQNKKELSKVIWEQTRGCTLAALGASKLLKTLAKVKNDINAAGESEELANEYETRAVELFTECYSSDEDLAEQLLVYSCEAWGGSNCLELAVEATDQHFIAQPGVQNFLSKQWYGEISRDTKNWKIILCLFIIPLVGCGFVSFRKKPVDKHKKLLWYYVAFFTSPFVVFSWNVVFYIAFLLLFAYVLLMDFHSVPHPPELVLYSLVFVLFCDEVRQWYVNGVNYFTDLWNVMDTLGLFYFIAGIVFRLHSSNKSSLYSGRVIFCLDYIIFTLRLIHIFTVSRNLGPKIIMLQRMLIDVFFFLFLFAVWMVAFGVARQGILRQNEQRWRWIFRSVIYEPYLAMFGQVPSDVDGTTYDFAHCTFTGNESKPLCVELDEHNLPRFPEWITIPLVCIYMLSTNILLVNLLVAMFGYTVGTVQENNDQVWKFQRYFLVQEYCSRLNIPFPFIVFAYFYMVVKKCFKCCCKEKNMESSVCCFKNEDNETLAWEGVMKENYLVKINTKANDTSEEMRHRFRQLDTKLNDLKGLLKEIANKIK

Structure (SMILES)	EC50 [1, 6] [nM]	other results
CSc1ccc2c(c1)n(CCN)c(=O)n2C(=O)[C@@H]1C[C@H](C)CC[C@H]1C(C)C [Compound 42, 3-(2-Amino-ethyl)-1-(2-isopropyl-5-methyl-cyclohexanecarbonyl)-5-methylsulfanyl-1,3-dihydro-benzoimidazol-2-one]	< 20	
CC(C)[C@@H]1CC[C@@H](C)C[C@H]1C(=O)n1c(=O)n(CCN)c2cc([S+](C)[O-])ccc21 (some centres unmarked) [Compound 43, 3-(2-Amino-ethyl)-1-(2-isopropyl-5-methyl-cyclohexanecarbonyl)-5-methylsulfinyl-1,3-dihydro-benzoimidazol-2-one]	< 20	
CCN(CC)CCNC(=O)c1ccc2c(c1)n(CCN)c(=O)n2C(=O)[C@@H]1C[C@H](C)CC[C@H]1C(C)C [Compound 44, 3-(2-Amino-ethyl)-1-(2-isopropyl-5-methylcyclohexanecarbonyl)-2-oxo-2,3-dihydro-1H-benzoimidazole-5-carboxylic acid (2-diethylamino-ethyl)amide]	< 20	
CC(C)[C@@H]1CC[C@@H](C)C[C@H]1C(=O)n1c(=O)n(C[C@@H](C)N)c2ccccc21 [Compound 45, 1-(2-Amino-2-(R)-methylethyl)-3-(2-isopropyl-5-methylcyclohexanecarbonyl)-1,3-dihydro-benzoimidazol-2-one]	< 20	
C#CCOc1ccc2c(c1)n(CCN)c(=O)n2C(=O)[C@@H]1C[C@H](C)CC[C@H]1C(C)C [Compound 46]	< 20	
COCCNC(=O)c1ccc2c(c1)n(CCN)c(=O)n2C(=O)[C@@H]1C[C@H](C)CC[C@H]1C(C)C [Compound 49]	< 20	
CC(C)[C@@H]1CC[C@@H](C)C[C@H]1C(=O)n1c(=O)n(CCN)c2ccccc21 [Compound 50, 1-(2-Aminoethyl)-3-(2-isopropyl-5-methylcyclohexanecarbonyl)-1,3-dihydro-benzoimidazol-2-one]	< 20	
CC(C)[C@@H]1CC[C@@H](C)C[C@H]1C(=O)n1c(=O)n(CCN)c2cc3ccccc3cc21 [Compound 51]	< 20	
CC(C)[C@@H]1CC[C@@H](C)C[C@H]1C(=O)n1c(=O)n(CCN)c2cc(C(=O)NCCO)ccc21 [Compound 52]	< 20	
CC(C)[C@@H]1CC[C@@H](C)C[C@H]1C(=O)n1c(=O)n(CCN)c2cnccc21 [Compound 54]	21 to 50	
CCN(CC)CCNC(=O)c1cccc2c1n(CCN)c(=O)n2C(=O)[C@@H]1C[C@H](C)CC[C@H]1C(C)C [Compound 55]	21 to 50	
CC(C)[C@@H]1CC[C@@H](C)C[C@H]1C(=O)n1c(=O)n(CCN)c2cc(C(=O)Nc3ccncc3)ccc21 [Compound 56]	21 to 50	
CC(C)[C@@H]1CC[C@@H](C)C[C@H]1C(=O)n1c(=O)n(CCN)c2ncccc21 [Compound 57]	21 to 50	
CC(C)[C@@H]1CC[C@@H](C)C[C@H]1C(=O)n1c(=O)n(CCCN)c2ccccc21 [Compound 58]	21 to 50	
CC(C)[C@@H]1CC[C@@H](C)C[C@H]1C(=O)n1c(=O)n(CCN)c2cc(C(=O)Nc3ccccc3)ccc21 [Compound 59]	21 to 50	
CC(C)[C@@H]1CC[C@@H](C)C[C@H]1C(=O)n1c(=O)n(CCN)c2ccc(C(F)(F)F)cc21 [Compound 61]	21 to 50	
CC(C)[C@@H]1CC[C@@H](C)C[C@H]1C(=O)n1c(=O)n(CCN)c2ccncc21 [Compound 62]	21 to 50	

Structure (SMILES)	EC50 [1, 6] [nM]	other results
CC(C)[C@@H]1CC[C@@H](C)C[C@H]1C(=O)n1c(=O)n(CCN)c2cc(C(=O)NCc3ccccc3)ccc21 [Compound 63]	21 to 50	
CC(C)[C@@H]1CC[C@@H](C)C[C@H]1C(=O)n1c(=O)n(CCN)c2cc(C(=O)N3CCOCC3)ccc21 [Compound 64]	21 to 50	
CC(C)[C@@H]1CC[C@@H](C)C[C@H]1C(=O)n1c(=O)n(CCN)c2cc(OCC(=O)c3ccccc3)ccc21 [Compound 65]	21 to 50	
CNCCn1c(=O)n(C(=O)[C@@H]2C[C@H](C)CC[C@H]2C(C)C)c2ccccc21 [Compound 66]	21 to 50	
CCCCOc1ccc2c(c1)n(CCN)c(=O)n2C(=O)[C@@H]1C[C@H](C)CC[C@H]1C(C)C [Compound 67]	51 to 100	
CC(C)[C@@H]1CC[C@@H](C)C[C@H]1C(=O)n1c(=O)n(CCN)c2cc(C(=O)N(C)c3ccccc3)ccc21 [Compound 68]	51 to 100	
CCOC(=O)N1CCN(C(=O)c2ccc3c(c2)n(CCN)c(=O)n3C(=O)[C@@H]2C[C@H](C)CC[C@H]2C(C)C)CC1 [Compound 69]	51 to 100	
CCN(CC)C(=O)c1ccc2c(c1)n(CCN)c(=O)n2C(=O)[C@@H]1C[C@H](C)CC[C@H]1C(C)C [Compound 70]	51 to 100	
CC(C)[C@@H]1CC[C@@H](C)C[C@H]1C(=O)n1c(=O)n(CCN)c2cc(C(=O)NCCc3ccccc3)ccc21 [Compound 71]	51 to 100	
CC(C)[C@@H]1CC[C@@H](C)C[C@H]1C(=O)n1c(=O)n(CCN)c2cc(C(=O)N[C@@H](CO)[C@@H](O)c3ccccc3)ccc21 [Compound 72]	51 to 100	
CC(C)[C@@H]1CC[C@@H](C)C[C@H]1C(=O)n1c(=O)n(CCN)c2cc(C(=O)NCC(N)=O)ccc21 [Compound 73]	51 to 100	
CC(C)[C@@H]1CC[C@@H](C)C[C@H]1C(=O)n1c(=O)n(CCN)c2cc(C(=O)NC(CO)CO)ccc21 [Compound 74]	51 to 100	
CC(C)[C@@H]1CC[C@@H](C)C[C@H]1C(=O)n1c(=O)n(CCN)c2cc(OCc3ccccc3)ccc21 [Compound 75]	51 to 100	
CC(C)[C@@H]1CC[C@@H](C)C[C@H]1C(=O)n1c(=O)n(CCCCN)c2ccccc21 [Compound 76]	51 to 100	
CC(C)[C@@H]1CC[C@@H](C)C[C@H]1C(=O)Nc1cc(-c2ccccc2)nn1CCN [III]		EC50 [1, 7]: 10 nM; EC50 [2]: > 10000 nM; exposure after a single oral administration [3]: prolonged exposure; exposure after a single oral administration [4]: prolonged exposure; half-life [5]: ~9 h
CC(C)[C@@H]1CC[C@@H](C)C[C@H]1C(=O)n1c(=O)n(CCN)c2ccccc21 [II]		EC50 [1, 7]: 10 nM; EC50 [2]: > 10000 nM; exposure after a single oral administration [3]: prolonged exposure; exposure after a single oral administration [4]: prolonged exposure; half-life [5]: ~9 h
